Source: patent US20210196730A1, “COMPOUND AND USE THEREOF” (priority 2018, published 2021)
Where two headings read alike, the source gives them in different places.

What was measured:
[1] = Toxicity experiment on mice in short- and long-term administration; conditions: mouse, in vivo
Experimental: Experimental Material: BALB/C Mice
Experimental method: BALB/C mice were divided into 5 groups, including a saline control group and four drug administration groups of TP, Cal, TP/Cal, and Callide^NP groups. 5 mice in the control group, and 5 mice for each of 3 dosages, i.e., high, medium and low dosages in each experimental group, for a total of 65 mice. Dosages of administration: TP (0.3 mg/kg, 0.6 mg/kg, 1.2 mg/kg); Cal (0.6 mg/kg, 1.2 mg/kg, 1.8 mg/kg); TP/Cal (0.6 mg/kg, 1.2 mg/kg, 1.8 mg/kg); and Callide^NP (0.6 mg/kg, 1.2 mg/kg, 1.8 mg/kg), were administered once a week via tail vein injection.

[2] = tested on: pancreatic cancer cell lines MIA PaCa-2, PANC-1, SW1990, and SW1990-GEM; test: Cytotoxicity experiment of Callide (DNA assay method); assay type: cell-based; conditions: 24 h
Experimental: Experimental materials: four pancreatic cancer cell lines, i.e., MIA PaCa-2, PANC-1, SW1990, and SW1990-GEM. Whole cell culture medium, microplate reader
Experimental Method: DNA Assay Method
Experimental process: pancreatic cancer cells were cultured, digested, resuspended into a cell suspension with medium, and seeded into 96-well plates, with 4000 cells per well. The experimental components are […], i.e., TP group, Cal group, TP and Cal physical mixed group (TP/Cal), Callide-DMSO without esterase group (Callide without PLE), Callide-DMSO with 10 U esterase group (Callide with 10 U PLE), Callide^NP without esterase group (Callide^NP without PLE), and Callide^NP with 10 U esterase group (Callide^NP with 10 U PLE). For each group, 8 concentrations of 5 nM, 10 nM, 20 nM, 40 nM, 80 nM, 100 nM, 200 nM, and 400 nM were prepared, and each concentration was repeated in six wells. After 24 h of administration, the drug solution was removed by suction, washed with PBS twice, added […], analyzed by a microplate reader, and plotted a relative survival rate curve of cells to calculate an IC50 of each compound.

[3] = Rat PK experiment of Callide^NP (chromatography-mass spectrometry); assay type: in vivo; conditions: SD rats, Callide^NP 0.3 and 0.6 mg/kg; for concentration of free TP in plasma / plasma half-life: TP 0.3 mg/kg
Experimental: Experimental materials: rats, strain SD, 6-9 weeks old. Analytical instruments: Agilent 1290/6460 triple quadrupole mass spectrometer, made in the United States.
Experimental Method: Chromatography-Mass Spectrometry
Experimental process: 12 SD rats were randomly divided into 4 groups, with 3 rats in each group. TP (0.3 mg/kg), TP/Cal (0.3/0.35 mg/kg), Callide^NP (0.3 mg/kg), Callide^NP (0.6 mg/kg) were administered respectively. 300 μl of blood of each rat was collected through the orbit at 5 min, 15 min, 30 min, 1 h, 2 h, 4 h, and 8 h, respectively, centrifuged at 10000 rpm at 4° C., and the supernatant plasma was collected. The plasma was extracted with ethyl acetate/water, vortexed, sonicated, centrifuged at 4° C., the supernatant was evaporated to dryness under the protection of nitrogen, and then dissolved in mobile phase acetonitrile/water. After centrifugation, the supernatant was taken and injected.

porcine liver esterase = test: In vitro degradation experiment of Callide (HPLC); assay type: in vitro ADME; conditions: absence of porcine liver esterase
Experimental: Experimental materials: phosphate buffer (PBS, Ph=7.2 to 7.4), porcine liver esterase, high performance liquid chromatography (HPLC)
Experimental Method: HPLC Method
Experimental process: 5 microliters of 1 mg/ml Callide (ethanol solution for solubilizing) in 5 ml of PBS buffer with or without porcine liver esterase, and stirred at 37 degrees Celsius for 1 min, 5 min, 10 min, 30 min, 1 h, 2 h, 4 h, 8 h, 12 h, 24 h, 48 h, respectively, 200 microliters of the solution were taken, filtered, and a concentration of Callide or calcipotriol in the solution was determined by HPLC.

[4] = tested on: humanized pancreatic cancer tissue; test: In vivo anti-tumor effect, mouse subcutaneous tumor model of humanized pancreatic cancer tissue
Experimental: Experimental material: humanized pancreatic cancer tissue
Experimental method: establishing a mouse subcutaneous tumor model based on humanized pancreatic cancer tissue
Experimental process: a mouse subcutaneous tumor model of humanized pancreatic cancer tissue was established, TP (0.3 mg/kg) and Callide^NP (0.3 mg/kg, administration dosage after it was theoretically completely degraded to TP) were administrated via tail vein injection, once a day. One week later, the dosage of Callide^NP was increased to 0.6 mg/kg.

MIA PaCa-2 cell line = test: In vivo anti-tumor effect, mouse subcutaneous tumor model based on MIA PaCa-2; conditions: for anti-tumor effect (tumor growth): compared with saline, TP 0.3, Cal 0.3, TP/Cal 0.3/0.35, Callide^NP 0.3 mg/kg (as TP), tail vein once a week
Experimental: Experimental Material: MIA PaCa-2 Cell Line
Experimental method: establishing a mouse subcutaneous tumor model based on the MIA PaCa-2 cell line, and evaluating an inhibitory effect on tumor as well as toxic and side effect of each compound of the experimental group after administration.
Experimental process: 0.1 ml of MIA PaCa-2 cell suspension was injected into axilla of the mice, and the growth of tumor was monitored. […] Dosages of administration: TP (0.3 mg/kg), Cal (0.3 mg/kg), TP/Cal (0.3/0.35 mg/kg), Callide^NP (0.3 mg/kg, administration dosage after it was theoretically completely degraded to TP), administered via tail vein injection once a week. The tumor size was measured every two days.

[5] = tested on: pancreatic stellate cells and pancreatic cancer cells; test: Smooth actin and collagen in co-cultured pancreatic stellate cells and pancreatic cancer cells (immunofluorescence); assay type: cell-based, KPC mice; conditions: co-culture 1:1, 24 hours; TP 10 nM, Cal 100 nM, TP/Cal 10/100 nM, Callide^NP 100 nM
Text: (§1) Experimental materials: pancreatic stellate cells and pancreatic cancer cells cultured in transgenic mice. Among them, pancreatic cancer cells were transfected with luciferase gene by lentivirus transfection method.
(§2) Experimental method: in vitro co-culture, immunofluorescence histochemical analysis
(§3) Experimental process: the tumor tissues were taken from KPC mice that spontaneously developed with tumors, and the tumor tissues were dissected, and primary pancreatic stellate cells and pancreatic cancer cells were isolated by physical in vitro disruption and enzymatic hydrolysis, and cultured.
Pancreatic stellate cells and pancreatic cancer cells were cultured in a 12-well plate at a ratio of 1:1, with a total of 100,000 cells per well, using TP (10 nM), Cal (100 nM), treated with TP/Cal (10/100 nM), and Callide^NP (100 nM), and incubated for 24 hours, and then the contents of smooth actin and collagen of the cells in each well were analyzed with immunofluorescence staining.

[6] = tested on: pancreatic stellate cells; test: Smooth actin and collagen in pancreatic stellate cells alone (immunofluorescence); assay type: cell-based, KPC mice; conditions: 24 hours, TP 10 nM, Cal 100 nM, TP/Cal 10/100 nM, Callide^NP 100 nM
Text: as §1, §2, §3
Pancreatic stellate cells alone were cultured in a 12-well plate, 100,000 cells per well, treated with TP (10 nM), Cal (100 nM), TP/Cal (10/100 nM), Callide^NP (100 nM) for 24 hours, and then contents of smooth actin and collagen of the cells in each well were analyzed with immunofluorescence staining.

[7] = tested on: pancreatic stellate cells and pancreatic cancer cells co-implanted orthotopic model; assay type: in vivo; conditions: for tumor suppression effect: TP 0.3, Cal 0.35, TP/Cal 0.3/0.35, Callide^NP 0.6 mg/kg, once every two days, 7 times
Experimental: Experimental materials: pancreatic stellate cells, pancreatic cancer cells transfected with luciferase; nude mice: strain Blab/C nude, 6-8 weeks old.
Experimental method: suspensions of pancreatic stellate cells and luciferase-transfected pancreatic cancer cells were mixed uniformly at a ratio of 1:1, and inoculated into the pancreas at a density of 10,000 cells/40 μL with an inoculation volume of 40 μL.
Experimental process: the two kinds of cells were digested and centrifuged, resuspended with PBS and mixed at a ratio of 1:1, and then the cell mixture was mixed with Matrigel at a ratio of 1:1 and pipetted uniformly. Nude mice underwent relevant operations under the premise of review by the Ethics Committee of Tsinghua University. […], of the uniformly pipetted cell suspension was injected into the pancreas with an insulin needle, the wound was sutured, and a sedative was injected subcutaneously. About one week after the cell injection, each mouse was intraperitoneally injected with 0.1 ml of […] solution. After 10 min, the mice were anesthetized with isoflurane, and an intensity of the fluorescent signal in the pancreas of the mice was detected with a live imaging system for small animal. Subsequently, the mice were randomly divided into groups, 7 mice in each group, and TP (0.3 mg/kg), Cal (0.35 mg/kg), TP/Cal (0.3/0.35 mg/kg), and Callide^NP (0.6 mg/kg) were administrated, respectively, once every two days for a total of 7 times. After each administration, the mice were weighed. After 4 times of administration, the intensity of the fluorescent signal in the pancreas of mice was detected with the live imaging system for small animal. After the administrations were all finished, the intensity of the fluorescent signal in the pancreas of the mice was detected again with the live imaging system for small animal, while recording a survival rate of mice. After the experiment, the tumor tissues of the mice were taken, and an expression of smooth actin and collagen in the tumor tissues was detected by tissue immunofluorescence staining (the experiment results are shown in FIG. 6).

## C=C1/C(=C\C=C2/CCC[C@@]3(C)C2CCC3[C@@H](C)/C=C/C(OC(=O)CCC(=O)O[C@@H]2[C@@]3(C(C)C)O[C@H]3[C@@H]3O[C@]34[C@]23O[C@H]3C[C@H]2C3=C(CC[C@@]24C)C(=O)OC3)C2CC2)C[C@@H](O)C[C@@H]1O (some centres unmarked) [Callide]
[1]
  long-term toxicity compared with TP: significantly reduced
[2]; with 10 U porcine liver esterase
  cell killing effect: produce cell killing effect
[2]; without the addition of esterase
  toxic and side effects on cells: no toxic and side effects on cells
[3]
  average plasma residence time: prolonged
  concentration of free TP in plasma: significantly reduced
  plasma half-life: prolonged
Porcine liver esterase; PBS, 37 degrees Celsius
  degradation of Callide: could not be degraded
Porcine liver esterase; time extended to 48 h
  concentration of Callide in the solution: remained unchanged
[4]; immunohistochemical staining
  apoptosis of tumor cells: accompanied by apoptosis of tumor cells
  fibrin content of the tumor tissue: significantly reduced

## CC(C)[C@]12O[C@H]1[C@@H]1O[C@]13[C@]1(O[C@H]1C[C@H]1C4=C(CC[C@@]13C)C(=O)OC4)[C@@H]2O [TP, triptolide]
1.8 mg/kg, single administration
  mortality: all mice died after a single administration
TP group
  morphology of spermatogonia and spermatocytes: severely damaged
  organs (anatomical results): different degrees of necrosis
  relative weight of the testis: significantly reduced
Especially 1.2 mg/kg of TP
  body weight: lost their weight significantly
  skin at the injection site on the tail: severe skin ulceration
high, medium and low dosages, once a week via tail vein injection
  toxic reactions / adverse states after administration: obvious toxic reactions
MIA PaCa-2 cell line
  anti-tumor effect (tumor growth): inhibits tumor growth more effectively than Callide^NP
MIA PaCa-2 cell line; mouse, in vivo
  tumor size relative to other groups: smaller than that of the TP/Cal and Callide^NP groups
MIA PaCa-2 cell line; tumors isolated and weighed after dissection
  tumor weight: significantly less weight than the control group
[2]; Pancreatic cancer cell, all four types of pancreatic cancer cells
  IC50: 0.02 µM
[3]
  concentration of free TP in plasma: high
  plasma half-life: short
[5]
  expression levels of related proteins (smooth actin and collagen): did not change significantly
[6]
  contents of smooth actin and collagen: not significantly different
[7]; TP 0.3 mg/kg
  toxicity: obvious toxicity
[7]
  tumor suppression effect: insignificant tumor suppression effect
[7]; after seven administrations, TP 0.3 mg/kg
  deaths: one mouse died
[7]; mouse, in vivo
  body weight of the mice: significantly reduced
[4]; first week, 0.3 mg/kg once a day via tail vein
  inhibitory effect on tumor growth: significant inhibitory effect on tumor growth

## C=C1/C(=C\C=C2/CCC[C@@]3(C)C2CCC3[C@@H](C)/C=C/[C@@H](O)C2CC2)C[C@@H](O)C[C@@H]1O (some centres unmarked) [Cal, calcipotriol]
mouse, in vivo
  toxic reactions / adverse states after administration: none of the mice in the Cal group showed the above-mentioned adverse symptoms
MIA PaCa-2 cell line
  anti-tumor effect (tumor growth): no anti-tumor effect
[2]; within the dosage range studied (5 nM to 400 nM)
  killing effect on cancer cells: no killing effect on cancer cells
[5]
  expression levels of related proteins (smooth actin and collagen): significantly reduced
[6]
  contents of smooth actin and collagen: decreased
[7]
  tumor suppression effect: no tumor suppression effect
[7]; compared with the control group
  survival rate of mice: no significant difference
[7]; live imaging, compared with the control group
  fluorescent signal of pancreatic cancer cells: no significant difference
